Results published in patent US10933146B2, “Cell-permeable imaging sensors and uses thereof” (Massachusetts Institute of Technology, priority 2017, dated 2021).

Legend:
[1] = MRI relaxivity of Mn-PDA contrast agents with BAPTA, with and without calcium, in buffer; type: physicochemical; conditions: 1.1 equivalents BAPTA, equimolar Ca^2+
Procedure: To examine the potential of Mn-PDA contrast agents to function as building blocks for the sensor design of FIG. 1A, MRI measurements were performed to assess the potential of BAPTA to interact with three paramagnetic chelates (FIG. 1A, inset). Addition of 1.1 equivalents of BAPTA to two of the Mn-PDA complexes, MnL1 and MnL3, produced significant effects on the T1-weighted MRI contrast induced by these compounds in buffer. These BAPTA-dependent contrast changes were reversed by addition of equimolar Ca^2+ (FIG. 1B). This was consistent with Mn-PDA moieties competing with Ca^2+ for binding to BAPTA molecules. The changes were quantified in terms of T1 relaxivity (r1) values, which were defined as the slope of the T1 relaxation rate (1/T1=R1) vs. concentration of each paramagnetic complex.
Most MRI data were acquired on a 7 T Bruker Biospec0 system using a T1-weighted 2D gradient echo sequence (echo time, TE=5 ms, repetition time, TR=100 ms; flip angle, FA=65 degrees (°)). Longitudinal relaxivity (r1) measurements were acquired using a 2D spin echo sequence (TE=11 ms, TR=125, 200, 400, 800, 1500, 3000, and 5000 ms), with in-plane resolution of 200×200 microns squared ((μm)^2) and 2 mm slice thickness. […] Stimulus-dependent R1 changes in cells were calculated as ΔR1/R1=[R1(incubated cells)−R1(naive cells)]/R1(naive cells). […]

[2] = Optical spectra / mass spectrometry of Mn-PDA complexes incubated with BAPTA over time; type: physicochemical; conditions: mixture with BAPTA, 0 h vs 24 h; confirmed by mass spectrometry
Source text: In contrast, the MnL1 mixture with BAPTA developed a strong peak for uncomplexed L1 (m/z=347.37), indicating dissociation of the MnL1 complex.

Compound: O=C1c2ccccc2[O][Mn-]23[O]c4ccccc4C(=O)[N]2c2ccccc2[N]13 [MnL1]
- Calcium-dependent changes in r1 in the presence of BAPTA [1]: 105%
- spectroscopic behavior in the presence of BAPTA over time (stability) [2]: sharp changes indicative of degradation
